Reference: the supplement of paper PMC4862054

What was measured:
Conditions in all cases: incubation time: 72 h
CAL-85-1 [1] = experiment: normalised response (% of control), CellTiter-Glo; higher = more viable cells (100 = DMSO, 0 = benzethonium chloride kill control)
Procedure, shortened: (§1)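 Two readouts were taken after 72 h: CellTox Green fluorescence (485/520 nm) first, then CellTiter-Glo luminescence after 10 min at room temperature. Breast cancer cell lines had been seeded as 20 µl suspension into 384-well plates holding compound at 5 concentrations in 10-fold steps across a compound-specific 10,000-fold range. Each value is a normalised signal at a single concentration, with plates scaled to 0.1 % DMSO (100) and a positive kill control (0).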

BT-549 = experiment: as above
Procedure, shortened: as §1

HCC1143 = experiment: as above
Procedure, shortened: as §1

CAL-51 [2] = experiment: as above
Procedure, shortened: as §1

SK-BR-3 = experiment: as above
Procedure, shortened: as §1

MFM-223 = experiment: as above
Procedure, shortened: as §1

MDA-MB-468 = experiment: as above
Procedure, shortened: as §1

BT-474 = experiment: as above
Procedure, shortened: as §1

HDQ-P1 [3] = experiment: as above
Procedure, shortened: as §1

HCC1599 = experiment: as above
Procedure, shortened: as §1

MDA-MB-436 = experiment: as above
Procedure, shortened: as §1

HCC1937 = experiment: as above
Procedure, shortened: as §1

MCF-10A = experiment: as above
Procedure, shortened: as §1

CAL-120 = experiment: as above
Procedure, shortened: as §1

MDA-MB-231 = experiment: as above
Procedure, shortened: as §1

Hs578T = experiment: as above
Procedure, shortened: as §1

MDA-MB-453 [4] = experiment: as above
Procedure, shortened: as §1

CAL-148 [5] = experiment: as above
Procedure, shortened: as §1

CAL-85-1 [6] = experiment: normalised viability (% of control), CellTiter-Blue; higher = more viable cells (about 100 = DMSO control)
Method: (§2)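 DSRT, CellTiter-Blue viability, 72 h incubation. Signal is normalised to DMSO and benzethonium chloride controls. Value is the normalised response at dose 7.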

CAL-51 [7] = experiment: as above
Method: as §2

HDQ-P1 [8] = experiment: as above
Method: as §2

DU-4475 = experiment: as above
Method: as §2

MDA-MB-453 [9] = experiment: as above
Method: as §2

CAL-148 [10] = experiment: as above
Method: as §2

Row | Compound | normalised response (CAL-85-1 [1]) [%] | normalised response (BT-549) [%] | normalised response (HCC1143) [%] | normalised response (CAL-51 [2]) [%] | normalised response (SK-BR-3) [%] | normalised response (MFM-223) [%] | normalised response (MDA-MB-468) [%] | normalised response (BT-474) [%] | normalised response (HDQ-P1 [3]) [%] | normalised response (HCC1599) [%] | normalised response (MDA-MB-436) [%] | normalised response (HCC1937) [%] | normalised response (MCF-10A) [%] | normalised response (CAL-120) [%] | normalised response (MDA-MB-231) [%] | normalised response (Hs578T) [%] | normalised response (MDA-MB-453 [4]) [%] | normalised response (CAL-148 [5]) [%] | normalised viability (CAL-85-1 [6]) [%] | normalised viability (CAL-51 [7]) [%] | normalised viability (HDQ-P1 [8]) [%] | normalised viability (DU-4475) [%] | normalised viability (MDA-MB-453 [9]) [%] | normalised viability (CAL-148 [10]) [%]
1 | Cc1c(N)nc([C@H](CC(N)=O)NC[C@H](N)C(N)=O)nc1C(=O)N[C@H](C(=O)N[C@H](C)[C@@H](O)[C@H](C)C(=O)N[C@H](C(=O)NCCc1nc(-c2nc(C(=O)NCCC[S+](C)C)cs2)cs1)[C@@H](C)O)[C@@H](OC1OC(CO)C(O)C(O)C1OC1OC(CO)C(O)C(OC(N)=O)C1O)c1cnc[nH]1 (stereo partly drawn) [Bleomycin] (1000 nM) | 91.9 | 66.7 | 83.1 | 49 | 84.8 | 99.6 | 86.1 | 91.3 | 103 | 105 | 82.3 | 94.2 | 96 | 91.9 | 88.3 | 86.5 | 91 | 82.1 | 94.5 | 105 | 88 | 98.9 | 94.3 | 105
2 | Cc1cc2c(F)c(Oc3ncnn4cc(OC[C@@H](C)O)c(C)c34)ccc2[nH]1 [Brivanib] (100 nM) | 97.1 | 94 | 107 | 80.6 | 103 | 107 | 108 | 107 | 104 | 126 | 110 | 97.4 | 111 | 109 | 107 | 98.8 | 97 | 105 | 87 | 93.7 | 110 | 104 | 90 | 111
3 | CC(C)C[C@H](NC(=O)[C@H](CCc1ccccc1)NC(=O)CN1CCOCC1)C(=O)N[C@@H](Cc1ccccc1)C(=O)N[C@@H](CC(C)C)C(=O)[C@@]1(C)CO1 [Carfilzomib] (100 nM) | 0.78 | 1.4 | 8.24 | 2.57 | 3.27 | 4.43 | 0.79 | 0.61 | 0.29 | 52 | 1.46 | 4.85 | 43.6 | 2.73 | 0.22 | 0.88 | 12.2 | 0.66 | 3.69 | 10.2 | 0.52 | 1.6 | 12.1 | 2.75
4 | Nc1nc(Cl)nc2c1ncn2[C@@H]1O[C@H](CO)[C@@H](O)[C@@H]1F [Clofarabine] (1000 nM) | 47.4 | 35.7 | 44.1 | 26.9 | 42.7 | 103 | 43.7 | 78.7 | 79.4 | 61.7 | 22.9 | 89.9 | 68.1 | 75.3 | 91 | 91.9 | 127 | 58.5 | 56.1 | 52.1 | 101 | 29 | 53.6 | 40.8
5 | CCN(CC)CCOc1ccc(C(=C(Cl)c2ccccc2)c2ccccc2)cc1 [Clomifene] (1000 nM) | 94.2 | 95.5 | 102 | 95.2 | 101 | 100 | 103 | 98.5 | 95.9 | 92.7 | 104 | 93.8 | 101 | 102 | 99.2 | 94.3 | 94.2 | 106 | 97.6 | 85.4 | 128 | 103 | 108 | 110
6 | C[C@@H]1C[C@H]2[C@@H]3CCC4=CC(=O)C=C[C@]4(C)[C@@]3(F)[C@@H](O)C[C@]2(C)[C@@]1(O)C(=O)CO [Dexamethasone] (1000 nM) | 112 | 102 | 97.6 | 124 | 83.5 | 93.5 | 102 | 139 | 83.6 | 97.8 | 104 | 98.1 | 80.6 | 68.7 | 159 | 108 | 84.6 | 92.5 | 103 | 101 | 117 | 106 | 69.8 | 115
7 | CC(C)C(=O)Nc1ccc([N+](=O)[O-])c(C(F)(F)F)c1 [Flutamide] (1000 nM) | 93.5 | 103 | 100 | 93.2 | 93.9 | 99.8 | 96.9 | 103 | 101 | 111 | 98.1 | 96.2 | 99.3 | 94.7 | 101 | 100 | 99.7 | 99.9 | 84.2 | 115 | 101 | 102 | 90.1 | 104
